From publication PMC9919591, “New Triazine Derivatives as Serotonin 5-HT6 Receptor Ligands” (Molecules, 2023)
“And” between values parts separate entries of the source, which are not always exact repeats. Equal values may be shown once. Where a name gives a salt, the structure may show the parent alone.

Experiments:
[1] = PAMPA, study b; cited from earlier work
human 5-HT2AR = target: T1, human 5-HT2AR (Homo sapiens, UniProt P28223); assay: Radioligand binding assay, 5-HT2AR ([3H]-ketanserin); conditions: CHO-K1 cells stably expressing human 5-HT2AR
T1 construct: expressed in transfected cells; host or cells: CHO-K1
Method: (§1) Affinity for serotonin 5-HT2A, 5-HT7 and dopamine D2 receptors (D2R) as protein off-targets was evaluated in the radioligand binding assays. In CHO-K1 cells, it was stably expressed human 5-HT2AR, whereas human 5-HT7R and D2R were stably expressed in HEK293 cells. […] A particularly weak affinity towards this receptor was shown through compounds of series 1 (compounds 1–7) and series 2 (compounds 8–13). […]. Radioligand binding assays were used to determine the affinity of the synthesized compounds for human serotonin 5-HT6R, 5-HT2AR, 5-HT7R and dopamine D2R, which were stably expressed in HEK293 cells or CHOk1 cells (5-HT2AR). This was done as described previously.

human 5-HT6R = target: T2, human 5-HT6R (Homo sapiens, UniProt P50406); assay: Radioligand binding assay, 5-HT6R ([3H]-LSD); conditions: for Ki: [3H]-LSD, HEK293 cells stably expressing human 5-HT6R, average of at least two independent experiments; for decrease in affinity for 5-HT6R compared to MST4: ratio of Ki values vs MST4 (Ki = 11 nM)
T2 construct: expressed in transfected cells; host or cells: HEK293
Method: The affinity of compounds (1–25) for 5-HT6R was evaluated in the radioligand binding assay in HEK293 cells stably expressing human 5-HT6R. [^3H]-LSD as a radioligand was used. […] All results are collected in Table 1, Table 2 and Table 3.
Radioligand binding assays were used to determine the affinity of the synthesized compounds for human serotonin 5-HT6R, 5-HT2AR, 5-HT7R and dopamine D2R, which were stably expressed in HEK293 cells or CHOk1 cells (5-HT2AR). This was done as described previously.

human D2R = target: T3, human D2R (Homo sapiens, UniProt P14416); assay: Radioligand binding assay, D2R ([3H]-raclopride); conditions: HEK293 cells stably expressing human D2R
T3 construct: expressed in transfected cells; host or cells: HEK293
Method: as §1

human 5-HT7R = target: T4, human 5-HT7R (Homo sapiens, UniProt P34969); assay: Radioligand binding assay, 5-HT7R ([3H]-5-CT); conditions: HEK293 cells stably expressing human 5-HT7R
T4 construct: expressed in transfected cells; host or cells: HEK293
Method: as §1

T4 sequence (P34969 whole entry): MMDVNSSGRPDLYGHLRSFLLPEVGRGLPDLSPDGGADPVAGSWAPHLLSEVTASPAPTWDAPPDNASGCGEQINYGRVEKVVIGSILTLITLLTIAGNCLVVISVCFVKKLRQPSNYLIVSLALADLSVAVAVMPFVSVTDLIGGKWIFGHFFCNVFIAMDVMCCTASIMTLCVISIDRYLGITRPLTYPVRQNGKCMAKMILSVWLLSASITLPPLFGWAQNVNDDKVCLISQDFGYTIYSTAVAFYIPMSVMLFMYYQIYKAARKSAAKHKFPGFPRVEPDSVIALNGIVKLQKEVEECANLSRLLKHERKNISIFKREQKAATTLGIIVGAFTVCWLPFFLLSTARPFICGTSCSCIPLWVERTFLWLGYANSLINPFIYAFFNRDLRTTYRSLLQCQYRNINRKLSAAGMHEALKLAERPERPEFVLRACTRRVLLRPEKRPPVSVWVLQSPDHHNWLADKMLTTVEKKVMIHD
T1 sequence (P28223 whole entry): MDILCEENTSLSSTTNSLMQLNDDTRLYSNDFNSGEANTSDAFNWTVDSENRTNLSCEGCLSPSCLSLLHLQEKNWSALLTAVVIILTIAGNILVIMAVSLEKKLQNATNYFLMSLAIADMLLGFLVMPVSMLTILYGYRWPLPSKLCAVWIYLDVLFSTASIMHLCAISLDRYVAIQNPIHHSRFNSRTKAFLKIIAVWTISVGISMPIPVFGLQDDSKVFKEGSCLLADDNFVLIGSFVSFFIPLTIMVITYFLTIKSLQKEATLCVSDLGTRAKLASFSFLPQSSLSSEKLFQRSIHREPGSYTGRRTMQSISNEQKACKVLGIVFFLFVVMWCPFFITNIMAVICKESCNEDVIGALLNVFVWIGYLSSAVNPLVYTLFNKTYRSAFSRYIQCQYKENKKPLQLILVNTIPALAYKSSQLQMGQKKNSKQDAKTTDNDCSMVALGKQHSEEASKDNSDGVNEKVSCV
T3 sequence (P14416 whole entry): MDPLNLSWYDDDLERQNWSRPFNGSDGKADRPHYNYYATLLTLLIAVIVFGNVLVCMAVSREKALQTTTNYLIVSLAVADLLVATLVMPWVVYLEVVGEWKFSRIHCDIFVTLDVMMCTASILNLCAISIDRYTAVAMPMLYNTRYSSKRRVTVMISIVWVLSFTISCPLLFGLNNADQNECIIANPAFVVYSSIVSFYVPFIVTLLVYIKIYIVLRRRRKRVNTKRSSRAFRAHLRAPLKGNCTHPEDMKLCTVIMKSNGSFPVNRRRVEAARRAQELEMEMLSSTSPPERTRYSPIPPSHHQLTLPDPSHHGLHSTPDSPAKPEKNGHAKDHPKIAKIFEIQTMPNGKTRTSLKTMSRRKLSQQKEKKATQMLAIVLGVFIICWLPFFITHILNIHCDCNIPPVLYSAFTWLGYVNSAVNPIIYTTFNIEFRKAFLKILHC
T2 sequence (P50406 whole entry): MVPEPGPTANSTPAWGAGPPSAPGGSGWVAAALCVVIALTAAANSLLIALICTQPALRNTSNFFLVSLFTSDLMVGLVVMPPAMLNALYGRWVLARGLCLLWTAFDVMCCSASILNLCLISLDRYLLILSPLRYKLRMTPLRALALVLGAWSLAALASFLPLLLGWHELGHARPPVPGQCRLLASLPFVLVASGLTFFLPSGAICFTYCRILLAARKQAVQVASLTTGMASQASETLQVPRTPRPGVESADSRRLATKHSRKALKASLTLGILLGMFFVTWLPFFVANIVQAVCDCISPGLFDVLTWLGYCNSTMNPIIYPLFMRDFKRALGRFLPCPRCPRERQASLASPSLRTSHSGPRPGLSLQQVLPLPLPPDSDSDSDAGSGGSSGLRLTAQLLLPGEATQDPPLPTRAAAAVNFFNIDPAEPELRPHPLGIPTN

Structure (SMILES)	Pe ± SD [1]	melting point	Ki (human 5-HT2AR) [nM]	Ki (human 5-HT6R) [nM]	Ki (human D2R) [nM]	Ki (human 5-HT7R) [nM]	decrease in affinity for 5-HT6R compared to MST4 (human 5-HT6R) [fold]
Cn1c(=O)c2c(ncn2C)n(C)c1=O [CFN, Caffeine]	15.1 ± 0.4 ×10^−6 cm/s						
CN1CCN(c2nc(N)nc(COc3ccc(C(C)(C)C)cc3C(C)(C)C)n2)CC1 (as salt: hydrochloride) [Compound 13, 4-((2,4-(di-tert-Butyl)phenoxy)methyl)-6-(4-methylpiperazin-1-yl)-1,3,5-triazin-2-amine hydrochloride]		284 to 287 °C					
Cc1ccc(C(C)C)c(OCc2nc(N)nc(N3CCN(C)CC3)n2)c1 [MST4, 4-((2-isopropyl-5-methylphenoxy)methyl)-6-(4-methylpiperazin-1-yl)-1,3,5-triazin-2-amine]	12.3 ×10^−6 cm/s and 12.3 ± 2.0 ×10^−6 cm/s						
Cc1cccc(OCCCc2nc(N)nc(N3CCN(C)CC3)n2)c1 [Compound 17, 4-(4-Methylpiperazin-1-yl)-6-(3-(m-tolyloxy)propyl)-1,3,5-triazin-2-amine]		114 to 117 °C	3850	1460	2600	30200	
Cc1ccc(C(C)C)c(OCCCc2nc(N)nc(N3CCN(C)CC3)n2)c1 [Compound 14, 4-(3-(2-Isopropyl-5-methylphenoxy)propyl)-6-(4-methylpiperazin-1-yl)-1,3,5-triazin-2-amine]		77 °C	1690	412	1590	6660	
CC(C)c1ccc(OCCCc2nc(N)nc(N3CCN(C)CC3)n2)cc1 [Compound 16, 4-(3-(4-Isopropylphenoxy)propyl)-6-(4-methylpiperazin-1-yl)-1,3,5-triazin-2-amine]		92 °C	1170	1110	704	5120	
CN1CCN(c2nc(N)nc(COc3cccc(C(C)(C)C)c3)n2)CC1 [Compound 5, 4-((3-(tert-Butyl)phenoxy)methyl)-6-(4-methylpiperazin-1-yl)-1,3,5-triazin-2-amine]		101.2 to 104.1 °C	3110	108		15500	
Cc1ccccc1OCCCc1nc(N)nc(N2CCN(C)CC2)n1 [Compound 18, 4-(4-Methylpiperazin-1-yl)-6-(3-(o-tolyloxy)propyl)-1,3,5-triazin-2-amine]		83 °C	1440	574	1760	14900	
CC(C)c1cccc(C(C)C)c1OCc1nc(N)nc(N2CCN(C)CC2)n1 [Compound 11, 4-((2,6-Diisopropylphenoxy)methyl)-6-(4-methylpiperazin-1-yl)-1,3,5-triazin-2-amine]		160 to 163 °C	7800	825		33600	
CC(C)c1ccccc1OCCCc1nc(N)nc(N2CCN(C)CC2)n1.Cl [Compound 15, 4-(3-(2-Isopropylphenoxy)propyl)-6-(4-methylpiperazin-1-yl)-1,3,5-triazin-2-amine hydrochloride]		235 °C	489	221	2430	8870	
CC(C)c1cccc(OCc2nc(N)nc(N3CCN(C)CC3)n2)c1 [Compound 4, 4-((3-Isopropylphenoxy)methyl)-6-(4-methylpiperazin-1-yl)-1,3,5-triazin-2-amine]		103 to 105 °C	2610	41	1790	5730	
Cc1cccc(C(C)(C)C)c1OCc1nc(N)nc(N2CCN(C)CC2)n1 [Compound 10, 4-((2-(tert-Butyl)-6-methylphenoxy)methyl)-6-(4-methylpiperazin-1-yl)-1,3,5-triazin-2-amine]		177 to 179 °C (dec.)		236		16600	
CC(C)c1ccccc1OCCCCCc1nc(N)nc(N2CCN(C)CC2)n1 [Compound 23, 4-(5-(2-Isopropylphenoxy)pentyl)-6-(4-methylpiperazin-1-yl)-1,3,5-triazin-2-amine]		63 to 65 °C	597	189	196	3430	
CC(C)c1ccccc1OCCCCc1nc(N)nc(N2CCN(C)CC2)n1 [Compound 20, 4-(4-(2-Isopropylphenoxy)butyl)-6-(4-methylpiperazin-1-yl)-1,3,5-triazin-2-amine]		59 °C	677	43	5690	665	
Cc1ccc(OCc2nc(N)nc(N3CCN(C)CC3)n2)c(C(C)(C)C)c1 [Compound 9, 4-((2-(tert-Butyl)-4-methylphenoxy)methyl)-6-(4-methylpiperazin-1-yl)-1,3,5-triazin-2-amine]		146.5 °C (dec.)	1930	48	2300	10900	
Cc1ccc(C(C)C)c(OCCCCCc2nc(N)nc(N3CCN(C)CC3)n2)c1 [Compound 22, 4-(5-(2-Isopropyl-5-methylphenoxy)pentyl)-6-(4-methylpiperazin-1-yl)-1,3,5-triazin-2-amine]		75 °C (dec.)	709	282	837	771	
Cc1ccc(C(C)C)c(OCCCCCCc2nc(N)nc(N3CCN(C)CC3)n2)c1 [Compound 25, 4-(6-(2-Isopropyl-5-methylphenoxy)hexyl)-6-(4-methylpiperazin-1-yl)-1,3,5-triazin-2-amine]		59 °C (dec.)	364	78	149	1030	
Cc1cccc(OCCCCc2nc(N)nc(N3CCN(C)CC3)n2)c1 [Compound 21, 4-(4-Methylpiperazin-1-yl)-6-(4-(m-tolyloxy)butyl)-1,3,5-triazin-2-amine]		99 to 101 °C	952	559	612	6250	
CN1CCN(c2nc(N)nc(COc3c(C(C)(C)C)cccc3C(C)(C)C)n2)CC1 [Compound 12, 4-((2,6-(di-tert-Butyl)phenoxy)methyl)-6-(4-methylpiperazin-1-yl)-1,3,5-triazin-2-amine hydrochloride]				379		8090	
CC(C)c1ccc(OCc2nc(N)nc(N3CCN(C)CC3)n2)cc1 [Compound 6, 4-((4-Isopropylphenoxy)methyl)-6-(4-methylpiperazin-1-yl)-1,3,5-triazin-2-amine]		133 to 135 °C	248	416		10100	
CC(C)c1ccccc1OCc1nc(N)nc(N2CCN(C)CC2)n1 [Compound 2, 4-((2-Isopropylphenoxy)methyl)-6-(4-methylpiperazin-1-yl)-1,3,5-triazin-2-amine]		140 to 142 °C	1270	21		16300	2
Cc1cccc(OCc2nc(N)nc(N3CCN(C)CC3)n2)c1 [Compound 1]							19
Cc1ccc(C(C)C)c(OCCCCc2nc(N)nc(N3CCN(C)CC3)n2)c1.Cl [Compound 19, 4-(4-(2-Isopropyl-5-methylphenoxy)butyl)-6-(4-methylpiperazin-1-yl)-1,3,5-triazin-2-amine hydrochloride]		239 °C	687	142	3200	638	
CN1CCN(c2nc(N)nc(COc3ccc(C(C)(C)C)cc3)n2)CC1 [Compound 7, 4-((4-(tert-Butyl)phenoxy)methyl)-6-(4-methylpiperazin-1-yl)-1,3,5-triazin-2-amine]		104.4 °C (dec.)	549	150	3130	4140	
CN1CCN(c2nc(N)nc(COc3ccc(C(C)(C)C)cc3C(C)(C)C)n2)CC1 [Compound 13, 4-((2,4-(di-tert-Butyl)phenoxy)methyl)-6-(4-methylpiperazin-1-yl)-1,3,5-triazin-2-amine hydrochloride]			760	162	2740	8470	
Cc1ccc(C(C)(C)C)c(OCc2nc(N)nc(N3CCN(C)CC3)n2)c1.Cl [Compound 8, 4-((2-(tert-Butyl)-5-methylphenoxy)methyl)-6-(4-methylpiperazin-1-yl)-1,3,5-triazin-2-amine hydrochloride]		259 °C (dec.)	1240	6	1570	15100	
Cc1cccc(OCCCCCc2nc(N)nc(N3CCN(C)CC3)n2)c1 [Compound 24, 4-(4-Methylpiperazin-1-yl)-6-(5-(m-tolyloxy)pentyl) 1,3,5-triazin-2-amine]		83 to 85 °C	854	644	481	1890	
